Test results: patent publication US20180071280A1, “MODULATORS OF CELL DEATH PROCESSES” (URIFER LTD., priority 2015, published 2018)
Counter-ions that a name gives are not always drawn.

Columns and labels:
Fer = Fer (Homo sapiens, UniProt P16591); assay: Fer autophosphorylation in RKO CC cells (IP/WB); assay type: cell-based; design: endogenous in cells; conditions: 24 h
Protocol: (§1) WB analyses were carried out as previously described before. In brief, cells were lysed in RIPA buffer mixed with protease inhibitors and separated on SDS-PAGE gel, transferred to PVDF membrane treated with 5% skim milk to exclude non-specific background and incubated with a primary antibody over-night. The membrane was incubated for 1 h with a secondary antibody conjugated to Horseradish Peroxidase (HRP). The protein-antibody complex was visualized using the SuperSignal West Pico Chemiluminescent Substrate (Thermo scientific, USA).
Protein lysates (1 mg) were prepared from tissues of adult mice according to previously described protocol, including incubation with Protein A Sepharose (GE Healthcare) to avoid nonspecific binding. Protein lysates were incubated with specific antibodies diluted 1:100 overnight at 4° C. Antigen-antibody complexes were precipitated with Protein A Sepharose, washed twice in PBS and eluted in Sample Buffer (2% SDS, 1% DTT 0.02% bromophenol blue 10% glycerol, 12.5 mM EDTA, 50 mM Tris-HCl pH 6.8) at room temperature for 10 min and at 100° C. for 8 min. Eluates were separated on SDS-PAGE and visualized by WB using specific antibodies.

SW620 CC xenografts = SW620 CC xenografts in nude mice; assay type: in vivo
Protocol: All animal experiments were performed according to the guidelines of the Institutional Animal Care and Use Committee of the Bar-Ilan University. Nude mice (Harlan, Israel) were transferred from ad libitum diet to a more strict diet 2 days before inoculation to lower blood glucose levels, and housed one per cage to ensure an even consumption of food. The diet was comprised of 3 g/mouse/day of standard chow, given at the same time every day. The food was consumed within an average time of 2 hours, consequently the mice were kept without food for the next 22 hours until the daily ration. The mice were kept on this diet throughout the experiment. Mice were inoculated with 1.5×10^6 SW620 CC cells and divided randomly into respective experimental groups. In brief, cells were harvested, counted under the microscope, concentrated by centrifugation (5 min at 500G) and re-suspended in Hank's balanced salt solution (Biological Industries, Israel). Before inoculation the cell suspension was mixed with Martial (BD biosciences, USA) in 1:1 ratio. Four days post-inoculation mice were randomized and placed in cages (n=4 per cage). […]
Mice were sacrificed at day 22 of the xenograft experiments, as described above. […] The serum was analyzed immediately using the Cobas 6000-501 chemistry analyzer (Roche Diagnostics, USA) according to the manufacturer's protocols for each assay.

[1] = Toxicological and histopathological studies in mice; assay type: in vivo
Protocol: All animal experiments were performed according to the guidelines of the Institutional Animal Care and Use Committee of the Bar-Ilan University. Nude mice (Harlan, Israel) were transferred from ad libitum diet to a more strict diet 2 days before inoculation to lower blood glucose levels, and housed one per cage to ensure an even consumption of food. The diet was comprised of 3 g/mouse/day of standard chow, given at the same time every day. The food was consumed within an average time of 2 hours, consequently the mice were kept without food for the next 22 hours until the daily ration. The mice were kept on this diet throughout the experiment. Mice were inoculated with 1.5×10^6 SW620 CC cells and divided randomly into respective experimental groups. In brief, cells were harvested, counted under the microscope, concentrated by centrifugation (5 min at 500G) and re-suspended in Hank's balanced salt solution (Biological Industries, Israel). Before inoculation the cell suspension was mixed with Martial (BD biosciences, USA) in 1:1 ratio. Four days post-inoculation mice were randomized and placed in cages (n=4 per cage). Mice were injected intra-peritonealy every 12 h for 22 days with 25 mg/kg or 50 mg/kg of the micellar and non-micellar 0260 formulations, and control mice—with empty micelles or vehicles. Mice were sacrificed at day 22, tissues from relevant organs were fixed in paraffin, sectioned (7 μm sections) and stained with Hematoxylin and Eosin stain (H&E stain) for future histopathological evaluation. Blood samples were drawn from sacrificed mice.
Mice were sacrificed at day 22 of the xenograft experiments, as described above. Tissues from relevant organs and tumors were fixed in paraffin, sectioned (7 μm sections) and stained with Hematoxylin and Eosin stain (H&E stain) for histopathological evaluation as previously described. Blood samples were drawn by cardiac puncture. […] The serum was analyzed immediately using the Cobas 6000-501 chemistry analyzer (Roche Diagnostics, USA) according to the manufacturer's protocols for each assay.

CC cells = assay: Autophagy in CC cells (TEM, LC3 immuno-staining, WB); assay type: cell-based, human
Protocol: as §1
Cells were fixed with 4% paraformaldehyde (30 min) and incubated with Permeabilization Solution containing 0.1% Triton X-100 (Sigma-Aldrich, Israel) in PBS at room temperature for 1 h. Nonspecific binding was blocked with PBS containing 10% fetal bovine serum for 1 h at room temperature. Cells were incubated with specific antibodies diluted 1:100 overnight at 4° C. Cells were washed (5 min) in PBS containing 0.2% Tween-20 (Sigma-Aldrich, Israel) to remove non-specific binding. Bound primary antibodies were detected by Alexa Fluor® 488 goat anti-mouse IgG antibody or Alexa Fluor® 594 goat anti-rabbit IgG antibody (Molecular Probes, Invitrogen, U.K.). Nuclei were visualized by incubation with Hoechst 33342 solution for 10 min (1:500). Nonspecific staining, as determined by binding to the secondary antibody only, was negligible. The immunostained slides were examined under the fluorescence microscope AxioimagerZ1 (Zeiss, Germany) or confocal fluorescence microscope (Olympus-FV1000).
Cells were grown in MEM or DMEM, washed twice with PBS and fixed for 5 minutes in Karnovsky fixative (2.5% glutaraldehyde, 2.5% paraformaldehyde in cacodylate buffer pH 7.4) on the tissue culture plate. Cells were then harvested, and transferred to 1.5 ml tube for further 1 h fixation at room temperature. The cells were then stored O.N at 4C° after which the samples were washed in 0.1 M cacodylate buffer and post-fixed with 1% OsO4 in 0.1 M sodium cacodylate buffer (Sigma-Aldrich, Israel) for 1 h. […]

[2] = tested on: triple negative breast carcinoma MDA-MB-231 (MDA); assay: MultiTox-Fluor cytotoxicity assay in MDA-MB-231 cells; assay type: cell-based, human; conditions: 24-72 h
Protocol: Cell lines (HCT116, ht29, Rko, Hep3B, SW48, SW620, MDA-MB-231, PANC-1, su.86.86, Hfb) were obtained from the American Type Culture Collection (ATCC). Cell type authentication was carried out by microscope and DNA profiles using short tandem repeat analysis. Cells were grown in Minimum Essential Medium (MEM) containing 10% heat-inactivated Fetal Bovine Serum (FBS) or in Dulbecco's Modified Eagle's Medium (DMEM) containing 10% FBS, where specified, at 37° C. with 5% CO2. In general, the in-vitro experiments were carried out with 2. μM 0260 added into the growth medium. Dose response experiments included increasing 0260 concentrations. Cell death levels were determined using the MultiTox-Fluor Multiplex Cytotoxicity Assay (G9201, Promega, USA). In brief, 10,000 cells were seeded in black bottom 96 wells plate and were allowed to attach to the plate bottom for 16 h before the administration of various 0260 concentration in each well. Cell death levels were determined according to the manufacturer's protocol.
Cells death level was determined using the MultiTox-Fluor Multiplex Cytotoxicity Assay (G9201, Promega, USA) according to the manufacturer's protocol.

Chain of Fer (P16591 whole entry): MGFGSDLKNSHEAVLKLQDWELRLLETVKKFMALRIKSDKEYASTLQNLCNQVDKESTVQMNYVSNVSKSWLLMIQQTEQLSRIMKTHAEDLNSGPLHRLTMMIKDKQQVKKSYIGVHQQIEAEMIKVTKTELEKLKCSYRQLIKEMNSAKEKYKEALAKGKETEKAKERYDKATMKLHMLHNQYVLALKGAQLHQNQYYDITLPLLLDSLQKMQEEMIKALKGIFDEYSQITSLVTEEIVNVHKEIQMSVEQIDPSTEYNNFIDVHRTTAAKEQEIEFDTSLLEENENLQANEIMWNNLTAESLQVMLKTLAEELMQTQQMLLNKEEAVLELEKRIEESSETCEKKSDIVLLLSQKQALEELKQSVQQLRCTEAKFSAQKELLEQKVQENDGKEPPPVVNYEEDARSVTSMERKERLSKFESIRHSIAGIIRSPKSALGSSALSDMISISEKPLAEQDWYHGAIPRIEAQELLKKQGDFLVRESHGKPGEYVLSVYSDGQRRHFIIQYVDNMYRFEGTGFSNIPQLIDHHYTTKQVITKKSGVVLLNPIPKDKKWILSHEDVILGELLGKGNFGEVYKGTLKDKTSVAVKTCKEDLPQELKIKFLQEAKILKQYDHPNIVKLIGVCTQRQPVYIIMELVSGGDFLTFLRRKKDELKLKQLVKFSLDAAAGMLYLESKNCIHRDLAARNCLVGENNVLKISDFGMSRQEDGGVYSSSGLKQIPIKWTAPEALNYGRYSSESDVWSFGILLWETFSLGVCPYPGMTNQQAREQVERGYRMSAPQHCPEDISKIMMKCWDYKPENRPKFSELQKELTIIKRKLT

## CC(C)c1ccc(-c2cn3nc(N4CCC(CN5CCN(C)CC5)CC4)sc3n2)cc1 [compound 0260, tartarate salt of 6-(4-isopropyl-phenyl)-2-{4-[(4-methyl-piperazin-1-yl)methyl]piperidin-1-yl}-imidazo [2,1-b][1,3,4]thiadiazole]
Fer
  Fer autophosphorylation level in cells: inhibitory effect
SW620 CC xenografts; SW620 derived tumors dissected at day 22, center and periphery
  tumor histopathology: comprised mostly of dead necrotic and un-vascularized tissue
SW620 CC xenografts; after 22 days of treatment, IP twice a day, restricted diet
  decrease in average tumor volume: 10 fold
[1]; daily injection
  toxic effects (blood markers of liver and kidney functions, blood electrolytes): did not cause any toxic effects or adverse side effects
[1]; mouse, in vivo
  histopathology of heart, kidneys and liver: failed to detect any abnormalities related to toxicity
[1]; xenograft experiments
  effect on animal's weight: no significant effect
CC cells; TEM and LC3 immuno-staining
  autophagy / autophagosomes: autophagy was induced and autophagosomes accumulated
CC cells; WB
  level of LC3II: relative increase
[2]
  concentration efficient in inducing cell death: ≤ 1.5 µM
